Results from ChEMBL document CHEMBL2073943, “Effect of the flavonoids biochanin A and silymarin on the P-glycoprotein-mediated transport of digoxin and vinblastine in human intestinal Caco-2 cells” (Pharm Res, 2003).

What was measured:
Assay type in all cases: functional, cell-based
[1] = target: T1, ATP-dependent translocase ABCB1 (Homo sapiens, UniProt P08183); assay: TP_TRANSPORTER: increase in […] intracellular accumulation (VBL: 27nM, biochanin A: 150 uM) in Caco-2 cells; settings: caco-2, 150 µM
[2] = target: T1, ATP-dependent translocase ABCB1; assay: TP_TRANSPORTER: increase in digoxin intracellular accumulation (digoxin: 11nM, biochanin A: 150 uM) in Caco-2 cells; settings: caco-2, 150 µM
[3] = target: T1, ATP-dependent translocase ABCB1; assay: TP_TRANSPORTER: increase in […] intracellular accumulation (VBL: 27nM, silymarin: 100 uM) in Caco-2 cells; settings: caco-2, 100 µM
[4] = target: T1, ATP-dependent translocase ABCB1; assay: TP_TRANSPORTER: increase in digoxin intracellular accumulation (digoxin: 11nM, silymarin: 100 uM) in Caco-2 cells; settings: caco-2, 100 µM

T1 sequence (P08183 whole entry): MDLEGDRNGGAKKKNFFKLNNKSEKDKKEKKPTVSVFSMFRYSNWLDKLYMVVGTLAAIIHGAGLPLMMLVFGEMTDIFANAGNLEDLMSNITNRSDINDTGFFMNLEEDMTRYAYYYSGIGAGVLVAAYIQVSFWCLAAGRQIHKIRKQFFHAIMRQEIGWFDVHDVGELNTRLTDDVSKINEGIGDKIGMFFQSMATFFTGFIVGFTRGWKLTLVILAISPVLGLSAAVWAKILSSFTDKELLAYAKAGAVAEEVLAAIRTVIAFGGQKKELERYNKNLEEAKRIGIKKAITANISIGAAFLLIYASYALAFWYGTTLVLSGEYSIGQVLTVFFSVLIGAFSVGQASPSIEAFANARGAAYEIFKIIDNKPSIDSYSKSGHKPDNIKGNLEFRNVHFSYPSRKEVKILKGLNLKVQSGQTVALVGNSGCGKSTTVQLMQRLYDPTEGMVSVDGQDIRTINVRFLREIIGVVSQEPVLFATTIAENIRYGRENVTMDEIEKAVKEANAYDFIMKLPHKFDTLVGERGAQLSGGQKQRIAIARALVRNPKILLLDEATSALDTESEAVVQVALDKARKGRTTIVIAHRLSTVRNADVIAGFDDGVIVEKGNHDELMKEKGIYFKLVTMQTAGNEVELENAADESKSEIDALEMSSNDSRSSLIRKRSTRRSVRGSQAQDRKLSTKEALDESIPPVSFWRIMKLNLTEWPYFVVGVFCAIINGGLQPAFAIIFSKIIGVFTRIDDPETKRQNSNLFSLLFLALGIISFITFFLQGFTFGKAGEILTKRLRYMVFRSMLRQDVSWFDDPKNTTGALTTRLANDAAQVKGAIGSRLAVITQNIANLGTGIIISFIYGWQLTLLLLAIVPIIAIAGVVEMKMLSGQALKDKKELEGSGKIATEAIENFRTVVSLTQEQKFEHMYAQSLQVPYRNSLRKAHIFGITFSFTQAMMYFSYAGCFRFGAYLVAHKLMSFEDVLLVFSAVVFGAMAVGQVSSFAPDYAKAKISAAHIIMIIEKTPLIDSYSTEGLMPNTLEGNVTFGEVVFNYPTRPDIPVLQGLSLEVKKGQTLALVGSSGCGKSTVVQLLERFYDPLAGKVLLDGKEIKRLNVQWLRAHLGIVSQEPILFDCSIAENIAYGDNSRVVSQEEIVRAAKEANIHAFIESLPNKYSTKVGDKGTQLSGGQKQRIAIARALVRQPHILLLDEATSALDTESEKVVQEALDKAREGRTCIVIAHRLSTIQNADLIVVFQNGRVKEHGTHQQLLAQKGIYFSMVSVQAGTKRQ

| Activity [1] | Activity [2] | Activity [3] | Activity [4] | Compound |
| --- | --- | --- | --- | --- |
| inhibitor [+] | inhibitor [+] | – | – | COc1ccc(-c2coc3cc(O)cc(O)c3c2=O)cc1 [BIOCHANIN] |
| – | – | inhibitor [+] | inhibitor [+] | SILYMARIN |
